Laboratory results from patent US6281194A, “Cycloalkyl inhibitors of protein farnesyltransferase” (Warner-Lambert Company, priority 1999, dated 2001).
Read-outs that look alike come from different tables or passages of the source.

Legend:
[1] = target: T1, SF9 affinity purified rat farnesyl protein transferase (Rattus norvegicus, UniProt Q02293+Q04631); assay: PFT inhibitory activity; type: biochemical
T1 construct: made in house; host or cells: Sf9 insect cells (baculovirus system, inferred from b7)
Description: The protein:farnesyltransferase (PFT) or farnesyl protein transferase (FPT) inhibitory activity of compounds of the present invention were assayed in HEPES buffer (pH 7.4) containing 5 mM potassium phosphate and 20 μM ZnCl2. The solution also contained 5 mM DTT (dithiothreitol), 5 mM MgCl2 and 0.1% PEG 8000. Assays were performed in 96 well plates (Wallec) and employed solutions composed of varying concentrations of a compound of the present invention in 100% DMSO (dimethylsulfoxide). Upon addition of both substrates, radiolabeled farnesyl pyrophosphate ([1-^3 H], specific activity 15-30 Ci/mmol, final concentration 134 nM) and (biotinyl)-Ahe-Thr-Lys-Cys-Val-Ile-Met ([3aS[3a alpha, 4 beta, 6a alpha]-hexahydro-2-oxo-1H-thieno[3,4-d]imidazole-5-pentanoic acid]-[7-aminoheptanoic acid]-Thr-Lys-Cys-Val-Ile-Met) (Ahe is 7-aminoheptanoic acid, Thr is threonine, Lys is lysine, Cys is cysteine, Val is valine, Ile is isoleucine and Met is methionine) (final concentration 0.2 μM), the enzyme reaction was started by addition of SF9 affinity purified rat farnesyl protein transferase. After incubation at 30° C. for 30 minutes, the reaction was terminated by diluting the reaction 2.5-fold with a stop buffer containing 1.5 M magnesium acetate, 0.2 M H3 PO4, 0.5% BSA (bovine serum albumin), and strepavidin beads (Amersham) at a concentration of 1.3 mg/mL. After allowing the plate to settle for 30 minutes at room temperature, radioactivity was quantitated on a microBeta counter (Model 1450, Wallec). The assay was also carried out without 5 mM potassium phosphate.

[2] = test system: ras farnesylation in ras-transformed cells; assay: Gel shift assay; type: cell-based; conditions: 18-hour incubation
Description: Twenty-four hours after planting 2×10^6 ras-transformed cells per treatment condition, the farnesylation inhibitor is added at varying concentrations. Following an 18-hour incubation period, cells are lysed in phosphate-buffered saline containing 1% Triton X-100, 0.5% sodium deoxycholate, and 0.1% SDS (sodium dodecyl sulfate), pH 7.4 in the presence of several protease inhibitors (PMSF (phenylmethylsulfonylfluoride), antipain, leupeptin, pepstatin A, and aprotinin all at 1 μg/mL). Ras protein is immunoprecipitated from the supernatants by the addition of 3 μg v-H-ras Ab-2 (Y13-259 antibody from Oncogene Science). After overnight immunoprecipitation, 30 μL of a 50% protein G-Sepharose slurry (Pharmacia) is added followed by 45-minute incubation. Pellets are resuspended in 2× tris-glycine loading buffer (Novex) containing 5% β-mercaptoethanol and then denatured by 5 minutes boiling prior to electrophoresis on 14% Tris-glycine SDS gels. Using Western transfer techniques, proteins are transferred to nitrocellulose membranes followed by blocking in blocking buffer. Upon overnight incubation with primary antibody (pan-ras Ab-2 from Oncogene Science), an antimouse HRP (horse radish peroxidase) conjugate secondary antibody (Amersham) is employed for detection of the ras protein. Blots are developed using ECL(enhanced chemiluminescence) techniques (Amersham).

H61 xenografts = assay: In vivo activity, H61 xenografts in NCR-NU mice
Description: Female NCR-NU mice were randomized and then inoculated with trocar fragments of H61 xenografts obtained from donor animals on Day 0 of the experiment. H61 cells are NIH3T3 cells that have been transfected and transformed with mutant human H-ras. The animals were then re-randomized to treatment groups. Tumor-bearing mice were then treated via subcutaneous (SC) or interperitoneal (IP) injections of Example 1 every 12 hours at various dose levels for 14 days beginning on Day 1. Tumors were measured with calipers in two orthogonal dimensions several times per week for the duration of the experiment. Tumor burdens in milligrams were estimated from the caliper measurements by standard methods (mg=axb^2 /2, where a and b are the measurements of the major and minor axes of the tumor, respectively.) Inhibition of tumor growth was assessed at the last day of treatment (14). […] In mice given Example 1 IP at either 37 or 23 mg/kg/injection, no tumors were evident at the sites of inoculation, indicating complete (100%) inhibition of tumor growth.

[3] = test system: H61 cells: NIH transformed 3T3 H-ras cells; assay: Clonogenic assay (6 well plates); type: cell-based; conditions: H61 cells in soft agar, colonies counted after Day 13
Description: Clonogenic Assay (6 well plates)
Sometime previous to setting up an actual test:
1. Make up 1.5% Bacto Agar in Milli-Q water and autoclave.
2. Make up 500 mL 2× DMEM-HG without phenol red by combining the following:
1 bottle DMEM base powder (Sigma D-5030)
Adjust pH to 7.1 with HCl; filter sterilize.
1. Set up makeshift water bath (beaker of water with thermometer, on hot plate) in the hood. Keep water temperature between 37° C. to 43° C.
2. […] 1.5% Bacto Agar for approximately 2 minutes on high, or until completely melted. Then let it cool somewhat before using it. (You can keep it from resolidifying by setting the bottle on the hot plate.) […]
Bottom Layer (0.6% agar) Top Layer (0.3% agar)
20% calf serum 20% calf serum
40% Bacto Agar (1.5%) 20% Bacto Agar (1.5%)
(H61 cells: NIH transformed
Depending on the volume of each layer needed, use either 50 mL conical tubes or 200 mL turnip tubes which can be floated in the "water bath".
4. Add 1 mL of bottom layer agar/medium to each well: deliver 1 mL warm agar/medium to a well; then using the tip of the pipet, spread the agar/medium around to completely cover the bottom. Repeat with next well.
5. Allow the plates to set at room temperature for about 5 minutes until the bottom layer solidifies.
6. Label sterile Falcon 2054 (12×75 mm) tubes and add appropriate volume of drug solutions into them.
7. Aliquot 4 μL of DMSO or drug solution per 1 mL of agar/medium to appropriate tubes; then add the agar/medium/cells to each tube. Always add 1 mL more than will actually be needed. Mix up and down in the pipet (gently); then deliver 1 mL to the center of each well. The upper layer is less viscous, so it will generally spread out over the bottom layer unaided. If necessary, rotate the plane of the plate gently to spread the top layer evenly over the bottom layer.
8. Let plates set for 5 or 10 minutes at room temperature to solidify, then put into 5% CO2, 37° C. incubator.
9. On Day 13, add 0.5 mL of INT (tetrazolium 1 mg/mL in Milli-Q H2 O, filter sterilized) and return plates to incubator.

[4] = HEPES buffer pH 7.4 with 5 mM potassium phosphate, read-out: PFT Inhibitory Activity IC50 (μM) HEPES and 5 mM K3 PO4
[5] = HEPES buffer pH 7.4 without 5 mM potassium phosphate, read-out: PFT Inhibitory Activity IC50 (μM) HEPES
[6] = SC 96 mg/kg/injection every 12 hours for 14 days, last day of treatment (14)

Row | Compound | IC50 [1, 4] [µM] | IC50 [1, 5] [µM] | Gel Shift (μM) M.E.D. (minimal effective dose to observe inhibition of ras farnesylation) [2] [µM] | inhibition of tumor growth (H61 xenografts; IP 23 mg/kg/injection every 12 hours for 14 days, no tumors evident at sites of inoculation) [%] | inhibition of tumor growth (H61 xenografts; IP 37 mg/kg/injection every 12 hours for 14 days, no tumors evident at sites of inoculation) [%] | inhibition of tumor growth (H61 xenografts; [6]) [%] | median tumor burden of the treated group (H61 xenografts; [6]) [mg] | inhibition of tumor growth (in words) (H61 xenografts; SC or IP every 12 hours for 14 days) | IC50 [3] [nM] | IC50 ([3]; 312 h) [nM]
1 | C/C=C/CN(CC(=O)NCC1(c2ccccc2)CCC1)C(=O)[C@H](Cc1cnc[nH]1)NC(=O)OCc1ccccc1 (stereo in doubt) [Example 10, [(S)-trans]-[1-(But-2-enyl-{[(1-phenyl-cyclobutylmethyl)-carbamoyl]-methyl}-carbamoyl)-2-(3H-imidazol-4-yl)-ethyl]-carbamic Acid benzyl Ester] | 0.36 | < 0.001 | ≤ 0.05 |  |  |  |  |  |  | 
2 | O=C(CN(Cc1ccc(OCc2ccccc2)cc1)C(=O)[C@H](Cc1c[nH]cn1)NC(=O)OCc1ccccc1)NCC1(c2ccccc2)CCC1 [Example 1, (S)-[1-((4-Benzyloxy-benzyl)-{[1-(phenyl-cyclobutylmethyl)-carbamoyl]-methyl}-carbamoyl)-2-(1H-imidazol-4-yl)-ethyl]-carbamic Acid benzyl ester] | 0.006 | 0.075 | 0.02 | 100 | 100 | 73 | 672 | significantly inhibited tumor growth | 47 | 
3 | O=C(CN(Cc1ccc(OCc2ccccc2)cc1)C(=O)[C@H](Cc1c[nH]cn1)NC(=O)OCc1ccccc1)NCC1(c2ccccc2)CC1 [Example 2] | 0.006 | 0.15 | 0.02 |  |  |  |  |  | 180 | 
4 | O=C(CN(Cc1ccc(OCc2ccccn2)cc1)C(=O)[C@H](Cc1c[nH]cn1)NC(=O)OCc1ccccc1)NCC1(c2ccccc2)CCC1 [Example 3] | 0.0017 | 0.14 | 0.002 |  |  |  |  |  | 140 | 
5 | Cc1ccc(CN(CC(=O)NCC2(c3ccccc3)CCC2)C(=O)[C@H](Cc2c[nH]cn2)NC(=O)OCc2ccccc2)cc1 [Example 4, (S)-[1-((4-Methyl-benzyl)-{[(1-phenyl-cyclobutyl-methyl)-carbamoyl]-methyl}-carbamoyl)-2-(1H-imidazol-4-yl)-ethyl]-carbamic Acid Benzyl Ester] | 0.0054 | 0.26 | 0.01 |  |  |  |  |  |  | 
6 | O=C(CN(Cc1ccc(OCc2ccccc2)cc1)C(=O)[C@H](Cc1c[nH]cn1)NC(=O)OCc1ccccc1)NCC1(c2ccccc2)CCCC1 [Example 5, (S)-[1-((4-Benzyloxy-benzyl)-{[(1-phenyl-cyclopentylmethyl)-carbamoyl]-methyl}-carbamoyl)-2-(1H-imidazol-4-yl)-ethyl]-carbamic Acid benzyl Ester] | 0.018 | 0.32 | 0.2 |  |  |  |  |  |  | 320
7 | COc1ccc(CN(CC(=O)NCC2(c3ccccc3)CCC2)C(=O)[C@H](Cc2c[nH]cn2)NC(=O)OCc2ccccc2)cc1 [Example 6, (S)-[1-((4-Methoxy-benzyl)-{[(1-phenyl-cyclobutyl-methyl)-carbamoyl]-methyl}-carbamoyl)-2-(1H-imidazol-4-yl)-ethyl]-carbamic Acid benzyl Ester] | 0.0029 | 0.26 | 0.002 |  |  |  |  |  |  | 210
8 | Cc1ccc(CN(CC(=O)NCC2(c3ccccc3)CCC2)C(=O)[C@H](Cc2c[nH]cn2)NC(=O)N(C)Cc2ccccc2)cc1 [Example 7, (S)-2-(3-Benzyl-3-methyl-ureido)-3-(1H-imidazol-4-yl)-N-(4 methyl-benyl)-N-{[(1-phenyl-cyclobutylmethy)-carbomyl]-methyl}-propionamide] | 0.003 | 0.014 | 0.01 |  |  |  |  |  |  | 
9 | CN(Cc1ccccc1)C(=O)N[C@@H](Cc1c[nH]cn1)C(=O)N(CC(=O)NCC1(c2ccccc2)CCC1)Cc1ccc(OCc2ccccc2)cc1 [Example 8, (S)-2-(3-Benzyl-3-methyl-ureido)-N-(4-benzyloxy-benzyl)-3-(1H-imidazol-4-yl)-N-{[(1-phenyl-cyclobutylmethyl)-carbamoyl]-methyl}-propionamide] | 0.015 | 0.068 | 0.01 |  |  |  |  |  |  | 
10 | O=C(CN(Cc1ccc(OCc2ccccc2)cc1)C(=O)[C@H](Cc1c[nH]cn1)NC(=O)OCc1ccccc1)NCC1(c2c(Cl)cccc2Cl)CCC1 [Example 9, (S)-[1-[(4-Benzyloxy-benyl)-({[1-(2,6-dichlorophenyl)-cyclobutylmethyl]-carbamoyl}-methyl)-carbamoyl]-2-(1H-imidazol-4-yl)-ethyl]-carbamic Acid benzyl Ester] | 0.18 | 7 | > 0.2 |  |  |  |  |  |  | 
11 | CCCN(CC(=O)NCC1(c2ccccc2)CCC1)C(=O)[C@H](Cc1cnc[nH]1)NC(=O)OCc1ccccc1 [Example 11] | 0.33 | < 0.001 | ≤ 0.05 |  |  |  |  |  |  | 
12 | N-((1S)-1-(1H-4-imidazolylmethyl)-2-oxo-2-(2-oxo-2-[(1-phenylcyclobutyl)methyl]aminoethyl)[(1R)-1-phenylethyl]aminoethyl)carbamate [Example 12] | 0.34 | 0.002 | ≤ 0.05 |  |  |  |  |  |  | 
